How the values were obtained:
COX-1 = COX-1 protein expression in LPS-activated rat peritoneal macrophages (western blotting); assay type: cell-based; settings: SIN or DEX 1 h, LPS 24 h
Method: (§1) Sprague-Dawley (SD) rats from the University of Hong Kong were housed in cages with free access to food and water. Peritoneal macrophages of SD rats were isolated as described in Liu J. et al., Pharmacological research 2016, 111:303-315. Briefly, untreated rats were sacrificed and after laparotomy, about 50 ml cold sterile Hank's balanced salt solution (HBSS) was used to lavage the peritoneal cavity at twice, and then the peritoneal lavage fluid was collected and centrifuged at 1500 rpm for 10 min. The cell pellets was suspended at a density 1.5×10^6 cells/ml in pre-hearted DMEM medium with 10% heat-inactivated FBS, penicillin G (100 units/ml), streptomycin ([…]), and L-glutamine (2 mM), followed by seeding in 6-well plates at a density of 4.5×10^6 cells and incubation for 2 h. Then the medium were discarded to remove the non-adherent cells. The adherent cells were further washed for two times with pre-heated DMEM medium to remove floating cells. Next, cells were pre-treated with various concentration of SIN for 1 h, followed by stimulation with LPS (1 μg/ml).
(§2) Whole-cell and nuclear proteins were obtained using RIPA lysis buffer (CST, Boston, Mass., USA) and Nuclear and Cytoplasmic Extraction Reagents kit from Thermo Scientific (Asheville, N.C., USA), respectively. […] The levels of protein expression were measured using Odyssey v3.0 software from Li-COR (Lincoln, Nebr., USA).

C/EBPβ = C/EBPβ phosphorylation and nuclear translocation in LPS-stimulated rat peritoneal macrophages (western blotting, immunofluorescence); assay type: cell-based; settings: SIN 1 h
Method: as §1
as §2, with “USA). […]” for “USA).”

mPGES-1 = mPGES-1 protein expression in LPS-activated rat peritoneal macrophages (western blotting); assay type: cell-based; settings: SIN or DEX 1 h, LPS 24 h
Method: as §1, §2

NO = NO production in LPS-stimulated RAW264.7 cells (Griess reagent); assay type: cell-based, mouse; settings: pretreatment 1 h, LPS 100 ng/ml 18 h
Method: RAW264.7 and A549 cell lines were obtained from American Type Culture Collection (ATCC, Manassas, Va., USA) and maintained in DMEM (RAW264.7) or 1640 (A549) medium containing 10% FBS (Gibco-BRL, Grand Island, N.Y., USA) and antibiotics at 37° C. in a humidified atmosphere containing 5% CO2. RAW264.7 cells were plated in 6-well plates at a density of 4×10^5 cells and incubated for 24 h, then the cells were pretreated with different concentrations of SIN for 1 h before stimulating with LPS (100 ng/ml). A549 cells were seeded in 6-well plates at a density of 1×10^5 cells and incubated for 24 h, followed by pretreatment with SIN. A549 cells were then stimulated by IL-1β (1 ng/ml).
RAW264.7 cells and rat peritoneal macrophages were seeded in a 96-well plate at density of 1.4×10^4 and 1.5×10^5 cells, respectively. Various concentration of SIN was added to the cells for 1 hour before LPS stimulation. After stimulation with LPS for 18 h (RAW264.7 cells) or 24 h (rat peritoneal macrophages), MTT solution was added to each well and incubated for another 4 hours. 100 μl 10% SDS-HCl solution was added to each well for overnight to dissolve the formazan dye. The optical density was measured at 570 nm against a reference wavelength of 650 nm using a microplate UV/VIS spectrophotometer (Tecan, Mannedorf, Switzerland). […]

iNOS = iNOS protein level in LPS-stimulated rat peritoneal macrophages (immunoblotting); assay type: cell-based; settings: pretreatment 1 h, LPS 1 μg/ml 24 h
Method: as §1, §2

p-cPLA2 = p-cPLA2 protein expression in LPS-activated rat peritoneal macrophages (western blotting); assay type: cell-based; settings: SIN or DEX 1 h, LPS 24 h
Method: as §1, §2

COC1=C[C@@H]2[C@@H]3Cc4ccc(OC)c(O)c4[C@]2(CCN3C)CC1=O [SIN, sinomenine]
COX-1 protein expression (COX-1): did not suppress
LPS-induced phosphorylation of C/EBPβ (Ser105 and T235+T188) (C/EBPβ; LPS 30 min): inhibitory effects
LPS-induced nuclear translocation of C/EBPβ (C/EBPβ; LPS 2 h): inhibitory effects
mPGES-1 protein expression (mPGES-1): significantly and dose-dependently inhibited
NO production (nitrite) (NO): significantly inhibited
iNOS expression (iNOS): significantly inhibited
p-cPLA2 protein expression (p-cPLA2): did not suppress

— patent publication US20190070170A1, “METHOD OF S[…]-1” (Macau University of Science and Technology, priority 2017, published 2019)
